One assay relates to primary human astrocytes. The experiment in a line: LPS-induced cytokine release from primary human astrocytes. The assay is classed as cell-based. To be noted: 2 hours prior to LPS and 24 hours.
The target of a further assay is T1, mu opiate receptor (MOR) (Rattus norvegicus, UniProt P33535).
T1 construct: from tissue; host or cells: rat striatal membrane preparation
The experiment in a line: MOR agonist activity using [35S]GTPγS binding assay in striatal membranes. The assay is classed as biochemical. To be noted: for MOR agonist activity, [35S]GTPγS binding to Gαo, FLNA-binding compound as agonist 0.1 μM: 0.1 μM compound; for MOR agonist activity, [35S]GTPγS binding to Gαo, FLNA-binding compound as agonist 0.1 μM / MOR agonist activity, [35S]GTPγS binding to Gαo, FLNA-binding compound as agonist 1 μM: striatal membranes; for MOR agonist activity, [35S]GTPγS binding to Gαo, 1 μM + BFNA: 1 μM compound + 1 μM β-funaltrexamine; for MOR agonist activity, [35S]GTPγS binding to Gαo, FLNA-binding compound as agonist 1 μM: 1 μM compound. How it is done: To assess the mu opiate receptor (MOR) agonist activity of positive compounds from the FLNA screening, compounds were tested in a [^35S]GTPγS binding assay using striatal membranes.
Striatal tissue was homogenized in 10 volumes of ice cold 25 mM HEPES buffer, pH 7.4, which contained 1 mM EGTA, 100 mM sucrose, 50 μg/ml leupeptin, 0.04 mM PMSF, 2 μg/ml soybean trypsin inhibitor and 0.2% 2-mercaptoethanol. The homogenates were centrifuged at 800×g for 5 minutes and the supernatants were centrifuged at 49,000×g for 20 minutes.
The resultant striatal membrane preparation (200 μg) was admixed and maintained (incubated) at 30° C. for 5 minutes in reaction buffer as above that additionally contained 1 mM MgCl2 and 0.5 nM [^35S]GTPγS (0.1 μCi/assay, PerkinElmer Life and Analytical Sciences) in a total volume of 250 μl and continued for 5 minutes in the absence or presence of 0.1-10 μM of an assayed compound of interest. The reaction was terminated by dilution with 750 μl of ice-cold reaction buffer that contained 20 mM MgCl2 and 1 mM EGTA and immediate centrifugation at 16,000×g for 5 minutes.
The resulting pellet was solubilized by sonicating for 10 seconds in 0.5 ml of immunoprecipitation buffer containing 0.5% digitonin, 0.2% sodium cholate and 0.5% NP-40. Normal rabbit serum (1 μl) was added to 1 ml of lysate and incubated at 25° C. for 30 minutes. Nonspecific immune complexes were removed by incubation with 25 μl of protein A/G-conjugated agarose beads at 25° C. for 30 minutes followed by centrifugation at 5,000×g at 4° C. for 5 minutes. The supernatant was divided and separately incubated at 25° C. for 30 minutes with antibodies raised against Gαo proteins (1:1,000 dilutions).
The immunocomplexes so formed were collected by incubation at 25° C. for 30 minutes with 40 μl of agarose-conjugated protein A/G beads and centrifugation at 5,000×g at 4° C. for 5 minutes. The pellet was washed and suspended in buffer containing 50 mM Tris-HCl, pH 8.0, and 1% NP-40. The radioactivity in the suspension was determined by liquid scintillation spectrometry. […] DAMGO (H-Tyr-D-Ala-Gly-N-MePhe-Gly-OH; 1 or 10 μM) was used as a positive control.
A general note: GTPγS is a poorly hydrolysed GTP analogue; its binding reports G protein activation.

A short description of assay [1]: Mouse hot-water tail-flick test. The class given is in vivo. The settings on record: for mean maximum antinociception amount: 56 mg/kg. How it is done:
The mouse “tail flick” test was used to assay the relative antinociceptive activity of compositions containing a compound to be assayed. This assay was substantially that disclosed by Xie et al., 2005 J. Neurosci 25:409-416.
The mouse hot-water tail-flick test was performed by placing the distal third of the tail in a water bath maintained at 52° C. The latency until tail withdrawal from the bath was determined and compared among the treatments. A 10 second cutoff was used to avoid tissue damage. Data are converted to percentage of antinociception by the following formula: (response latency−baseline latency)/(cutoff−baseline latency)×100 to generate dose-response curves. […] Relative potency was determined as a ratio of the A50 values.
To assess tolerance to the antinociceptive effect, the compound was administered twice daily for 7 days at an A90 dose (dose that results in a 90% antinociceptive effect in the 52° C. warm-water tail-flick test), and the tail-flick test was performed daily after the a.m. dose.

Another assay concerns the target MOR (Rattus norvegicus, UniProt P33535). The experiment in a line: Relative Gs/Go switching: MOR-G protein coupling in organotypic striatal slice cultures. The settings on record: for Go (MOR level in anti-Gαo immunoprecipitates), average / Gs/Go-Coupled Ratio, average / Gs/olf (MOR level in anti-Gαs/olf immunoprecipitates), average: striatal slice culture.
For assay [2], the target named is FLNA VAKGL pentapeptide (Bn-VAKGL) (Homo sapiens, UniProt P21333). The experiment in a line: FITC-NLX-based FLNA screening assay (FLNA peptide binding assay).
Method: Streptavidin-coated 96-well plates (Reacti-Bind™ NeutrAvidin™ High binding capacity coated 96-well plate, Pierce-ENDOGEN) are washed three times with 200 μl of 50 mM Tris HCl, pH 7.4 according to the manufacturer's recommendation.
Bn-VAKGL peptide (0.5 mg/plate) is dissolved in 50 μl DMSO and then added to 4450 μl of 50 mM Tris HCl, pH 7.4, containing 100 mM NaCl and protease inhibitors (binding medium) as well as 500 μl superblock in PBS (Pierce-ENDOGEN) [final concentration for DMSO: 1%].
The washed streptavidin-coated plates are contacted with 5 μg/well of Bn-VAKGL (100 μl) for 1 hour (incubated) with constant shaking at 25° C. [50 μl of Bn-VAKGL peptide solution from B+50 μl binding medium, final concentration for DMSO: 0.5%]. At the end of the incubation, the plate is washed three times with 200 μl of ice-cold 50 mM Tris HCl, pH 7.4.
The final assay volume is 100 μl. At the end of incubation, the plate is washed twice with 100 μl of ice-cold 50 mM Tris, pH 7.4. The signal, bound-FITC-NLX is detected using a DTX-880 multi-mode plate reader (Beckman).
To screen the medicinal chemistry analogs (new compounds), each compound solution (1 μl) is added to the Bn-VAKGL coated streptavidin plate with 50 μl/well of binding medium followed immediately with addition of 50 μl of FITC-NLX (total assay volume/well is 100 μl). The final screening concentration for each compound is 10 μM. […]
The target of a further assay is filamin A (Homo sapiens, UniProt P21333). The settings on record: read-out: affinity of binding to filamin A; cited from earlier work.
Chain of filamin A (P21333 whole entry): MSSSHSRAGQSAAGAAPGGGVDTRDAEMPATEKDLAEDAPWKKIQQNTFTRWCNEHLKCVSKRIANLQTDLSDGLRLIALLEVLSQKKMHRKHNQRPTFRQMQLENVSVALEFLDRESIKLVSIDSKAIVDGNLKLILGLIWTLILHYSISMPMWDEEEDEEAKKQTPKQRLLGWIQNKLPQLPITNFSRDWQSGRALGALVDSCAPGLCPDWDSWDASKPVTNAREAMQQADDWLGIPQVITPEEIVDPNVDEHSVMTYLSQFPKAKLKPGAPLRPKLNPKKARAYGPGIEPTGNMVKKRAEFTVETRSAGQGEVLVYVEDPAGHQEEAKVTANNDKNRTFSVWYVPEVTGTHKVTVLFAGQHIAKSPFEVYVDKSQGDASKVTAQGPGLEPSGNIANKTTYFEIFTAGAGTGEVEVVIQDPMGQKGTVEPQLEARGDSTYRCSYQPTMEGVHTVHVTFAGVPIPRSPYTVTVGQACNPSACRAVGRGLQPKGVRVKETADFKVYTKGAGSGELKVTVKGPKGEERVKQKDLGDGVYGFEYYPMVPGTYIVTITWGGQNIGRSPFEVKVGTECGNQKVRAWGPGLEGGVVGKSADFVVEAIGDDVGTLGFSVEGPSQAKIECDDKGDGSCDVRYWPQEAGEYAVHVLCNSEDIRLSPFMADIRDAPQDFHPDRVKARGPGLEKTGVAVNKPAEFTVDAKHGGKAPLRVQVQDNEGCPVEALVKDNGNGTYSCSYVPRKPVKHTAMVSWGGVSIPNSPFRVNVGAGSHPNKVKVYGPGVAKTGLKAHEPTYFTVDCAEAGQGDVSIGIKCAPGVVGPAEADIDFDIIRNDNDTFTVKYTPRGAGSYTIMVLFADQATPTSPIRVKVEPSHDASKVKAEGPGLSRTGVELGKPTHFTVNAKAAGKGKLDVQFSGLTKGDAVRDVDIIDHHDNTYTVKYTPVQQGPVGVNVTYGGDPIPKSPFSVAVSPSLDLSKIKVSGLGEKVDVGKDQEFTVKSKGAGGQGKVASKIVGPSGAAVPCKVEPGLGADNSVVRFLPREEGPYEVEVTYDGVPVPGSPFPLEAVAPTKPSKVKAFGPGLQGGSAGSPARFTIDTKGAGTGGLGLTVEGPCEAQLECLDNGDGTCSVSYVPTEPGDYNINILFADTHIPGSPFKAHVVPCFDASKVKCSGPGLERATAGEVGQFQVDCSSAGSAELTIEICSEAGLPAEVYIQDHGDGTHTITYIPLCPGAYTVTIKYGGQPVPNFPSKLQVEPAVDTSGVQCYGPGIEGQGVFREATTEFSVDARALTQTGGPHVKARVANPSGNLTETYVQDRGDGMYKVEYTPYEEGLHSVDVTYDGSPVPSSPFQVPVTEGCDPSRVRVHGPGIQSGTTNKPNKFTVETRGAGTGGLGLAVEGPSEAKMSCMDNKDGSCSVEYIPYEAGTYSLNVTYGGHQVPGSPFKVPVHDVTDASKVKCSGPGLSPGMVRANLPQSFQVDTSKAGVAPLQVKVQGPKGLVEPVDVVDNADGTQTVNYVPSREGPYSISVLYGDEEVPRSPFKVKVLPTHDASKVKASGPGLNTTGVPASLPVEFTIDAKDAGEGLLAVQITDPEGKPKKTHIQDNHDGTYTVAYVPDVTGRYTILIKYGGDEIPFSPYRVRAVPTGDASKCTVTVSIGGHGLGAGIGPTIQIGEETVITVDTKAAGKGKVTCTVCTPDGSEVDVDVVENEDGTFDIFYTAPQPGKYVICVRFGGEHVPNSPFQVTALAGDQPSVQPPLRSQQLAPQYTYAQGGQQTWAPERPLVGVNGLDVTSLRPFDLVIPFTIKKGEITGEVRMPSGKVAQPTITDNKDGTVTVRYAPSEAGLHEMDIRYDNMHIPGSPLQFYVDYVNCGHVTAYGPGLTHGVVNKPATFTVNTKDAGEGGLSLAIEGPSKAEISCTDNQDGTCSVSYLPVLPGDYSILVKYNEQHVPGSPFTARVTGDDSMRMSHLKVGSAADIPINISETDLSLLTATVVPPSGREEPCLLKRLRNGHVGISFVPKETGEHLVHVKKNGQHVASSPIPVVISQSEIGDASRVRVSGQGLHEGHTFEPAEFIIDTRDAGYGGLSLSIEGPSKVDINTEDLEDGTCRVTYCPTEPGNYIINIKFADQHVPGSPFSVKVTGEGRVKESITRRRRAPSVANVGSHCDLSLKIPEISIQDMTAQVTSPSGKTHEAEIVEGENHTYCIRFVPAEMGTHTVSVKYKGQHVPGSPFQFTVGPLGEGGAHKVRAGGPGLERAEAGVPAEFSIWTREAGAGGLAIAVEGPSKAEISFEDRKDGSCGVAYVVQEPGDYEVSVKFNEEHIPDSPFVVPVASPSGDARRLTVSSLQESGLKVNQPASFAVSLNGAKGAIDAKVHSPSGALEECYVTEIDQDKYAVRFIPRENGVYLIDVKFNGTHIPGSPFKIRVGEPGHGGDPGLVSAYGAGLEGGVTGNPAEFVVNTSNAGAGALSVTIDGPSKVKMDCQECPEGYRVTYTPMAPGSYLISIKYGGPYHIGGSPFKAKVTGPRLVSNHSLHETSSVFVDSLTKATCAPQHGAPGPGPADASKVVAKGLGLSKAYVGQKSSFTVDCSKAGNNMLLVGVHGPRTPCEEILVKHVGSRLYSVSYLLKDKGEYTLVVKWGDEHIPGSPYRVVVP

For orientation: inhibition means the relative decrease from the control value, in per cent.

Chain of MOR (P33535 whole entry): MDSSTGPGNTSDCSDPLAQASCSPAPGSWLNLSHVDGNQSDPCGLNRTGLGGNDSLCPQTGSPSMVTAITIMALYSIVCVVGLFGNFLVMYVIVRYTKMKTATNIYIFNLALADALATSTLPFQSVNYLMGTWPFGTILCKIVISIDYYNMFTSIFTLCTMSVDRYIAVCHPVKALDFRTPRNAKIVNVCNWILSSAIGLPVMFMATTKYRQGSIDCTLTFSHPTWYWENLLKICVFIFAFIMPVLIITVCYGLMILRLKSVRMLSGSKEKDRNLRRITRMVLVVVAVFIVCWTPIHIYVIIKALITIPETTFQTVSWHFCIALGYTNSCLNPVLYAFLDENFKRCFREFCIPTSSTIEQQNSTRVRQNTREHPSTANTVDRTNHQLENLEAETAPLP
T1 sequence (P33535 whole entry): as above

Regarding `C=CCN1CC[C@]23c4c5ccc(O)c4O[C@H]2C(=O)CC[C@]3(O)[C@H]1C5` [(+)Naloxone, (+)naloxone, reference compound], in the assay on primary human astrocytes (10 pM), the “IL-1β Average % (±SEM)” value was 75.9 (4.5) %, the “IL-6 Average % (±SEM)” value is on record as 56.9 (4.4) % and the “TNF-α Average % (±SEM)” value is reported as 58.6 (2.0) %. Besides, in the assay with primary human astrocytes (1 nM), the “IL-1β Average % (±SEM)” value was 10.5 (4.8) %, the “IL-6 Average % (±SEM)” value is 6.8 (4.3) % and the “TNF-α Average % (±SEM)” value is 9.2 (6.0) %.
As to `CS(=O)(=O)c1ccc(S(=O)(=O)N2CCC3(CC2)OCCN3S(=O)(=O)c2ccc(S(C)(=O)=O)cc2)cc1` [Compound C0009], at mu opiate receptor (MOR), the “MOR agonist activity, [35S]GTPγS binding to Gαo, FLNA-binding compound as agonist 0.1 μM” value (“MOR agonist activity … as agonist 0.1 μM” below) is given as 146.3%; the “MOR agonist activity, [35S]GTPγS binding to Gαo, 1 μM + BFNA” value (“MOR agonist activity … 1 μM + BFNA” for short) turned out to be 26.4%; the “MOR agonist activity, [35S]GTPγS binding to Gαo, FLNA-binding compound as agonist 1 μM” value (from here on “MOR agonist activity … as agonist 1 μM”) is reported as 256.2%. The “mean maximum antinociception amount” value in assay [1] (oral, at about 10 minutes) is “about 50%”.
For `CC(=O)c1ccc(S(=O)(=O)N2CCC3(CC2)OCCN3S(=O)(=O)c2ccc(C(C)=O)cc2)cc1` [Compound C0011], at mu opiate receptor (MOR), the “MOR agonist activity … as agonist 0.1 μM” value was 217.0%; the “MOR agonist activity … 1 μM + BFNA” value was 19.0%; the “MOR agonist activity … as agonist 1 μM” value is 305.0%. In assay [1] (oral, at about 10-20 minutes), the “mean maximum antinociception amount” value is given as “about 70%”. Besides, at MOR (10 μM), the “Go (MOR level in anti-Gαo immunoprecipitates), average” value is 1603.3; the “Gs/Go-Coupled Ratio, average” value stood at 0.332; the “Gs/olf (MOR level in anti-Gαs/olf immunoprecipitates), average” value came to 534.3. For the same compound, at MOR (100 μM), the “Go (MOR level in anti-Gαo immunoprecipitates), average” value was found to be 1598.8; the “Gs/Go-Coupled Ratio, average” value was found to be 0.420; the “Gs/olf (MOR level in anti-Gαs/olf immunoprecipitates), average” value stood at 658.2.
On to `O=C(c1ccc([N+](=O)[O-])cc1)N1CCC2(CC1)OCCN2S(=O)(=O)c1ccc([N+](=O)[O-])cc1` [Compound C0033], for which, at mu opiate receptor (MOR), the “MOR agonist activity … as agonist 0.1 μM” value turned out to be 134.5%; the “MOR agonist activity … 1 μM + BFNA” value was 76.6%; the “MOR agonist activity … as agonist 1 μM” value was determined as 186.4%. Besides, in assay [2] (read-out: Percent inhibition of FITC-NLX binding, 0.1 μM), the inhibition at 0.1 µM was found to be 48.4%. The inhibition at 1 µM in assay [2] (read-out: Percent inhibition of FITC-NLX binding, 1 μM) turned out to be 51.3%.
`COc1ccc(S(=O)(=O)N2CCOC23CCN(S(=O)(=O)c2ccc(C(C)=O)cc2)CC3)cc1` [Compound C0047]: at mu opiate receptor (MOR), the “MOR agonist activity … as agonist 0.1 μM” value came to 142.2%; the “MOR agonist activity … 1 μM + BFNA” value is on record as 80.1%; the “MOR agonist activity … as agonist 1 μM” value worked out at 206.1%. Moreover, the “mean maximum antinociception amount” value in assay [1] (at about 20-30 minutes) is on record as “about 35%”.
With `CC(=O)c1ccc(C(=O)N2CCC3(CC2)OCCN3S(=O)(=O)c2ccc(C(C)=O)cc2)cc1` [Compound C0052], at mu opiate receptor (MOR), the “MOR agonist activity … as agonist 0.1 μM” value turned out to be 108.4%; the “MOR agonist activity … 1 μM + BFNA” value was 42.7%; the “MOR agonist activity … as agonist 1 μM” value was 162.8%. Moreover, the “mean maximum antinociception amount” value in assay [1] (oral, at about 20 minutes) is given as “about 30%”.
For `O=C1CN(Cc2ccccc2)C2(CCN(S(=O)(=O)c3cc(Cl)c(O)c(Cl)c3)CC2)N1` [Compound C0139M], on mu opiate receptor (MOR), the “MOR agonist activity … as agonist 0.1 μM” value worked out at 156.1%; the “MOR agonist activity … 1 μM + BFNA” value was determined as 51.0%; the “MOR agonist activity … as agonist 1 μM” value amounted to 206.6%. Further, in the assay with primary human astrocytes (10 pM), the “IL-1β Average % (±SEM)” value is on record as 83.4 (3.0) %, the “IL-6 Average % (±SEM)” value was 76.6 (3.1) % and the “TNF-α Average % (±SEM)” value is recorded as 77.0 (3.2) %. Also, in the assay on primary human astrocytes (1 nM), the “IL-1β Average % (±SEM)” value is 78.2 (0.7) %, the “IL-6 Average % (±SEM)” value is listed as 80.1 (7.0) % and the “TNF-α Average % (±SEM)” value was 77.5 (1.8) %. In addition, in the assay with primary human astrocytes (100 nM), the “IL-1β Average % (±SEM)” value is 70.5 (1.6) %, the “IL-6 Average % (±SEM)” value is 80.2 (6.3) % and the “TNF-α Average % (±SEM)” value was 72.7 (2.5) %. In the assay on primary human astrocytes (100 fM), the “IL-1β Average % (±SEM)” value is reported as 84.5 (2.6) %, the “IL-6 Average % (±SEM)” value is reported as 82.6 (1.6) % and the “TNF-α Average % (±SEM)” value is 74.8 (4.3) %.
Turning to `COc1ccc(S(=O)(=O)N2CCCC3(C2)OCCN3S(=O)(=O)c2ccc(OC)cc2)cc1` (centres unmarked) [Compound C0145M], at mu opiate receptor (MOR), the “MOR agonist activity … as agonist 0.1 μM” value is reported as 193.0%; the “MOR agonist activity … 1 μM + BFNA” value was 87.0%; the “MOR agonist activity … as agonist 1 μM” value was found to be 289.2%.
Consider `O=S(=O)(c1ccc(Oc2ccccc2)cc1)N1CCC2(CC1)OCCN2S(=O)(=O)c1ccc(Oc2ccccc2)cc1` [Compound C0149M], for which, at mu opiate receptor (MOR), the “MOR agonist activity … as agonist 0.1 μM” value stood at 209.8%; the “MOR agonist activity … 1 μM + BFNA” value was 93.4%; the “MOR agonist activity … as agonist 1 μM” value is given as 406.7%.
On to `O=S(=O)(c1csc2ccccc12)N1CCC2(CC1)OCCN2S(=O)(=O)c1csc2ccccc12` [Compound C0150M], for which, at mu opiate receptor (MOR), the “MOR agonist activity … as agonist 0.1 μM” value stood at 167.1%; the “MOR agonist activity … 1 μM + BFNA” value is reported as 158.1%; the “MOR agonist activity … as agonist 1 μM” value turned out to be 423.1%.
For `COc1ccc(NC(=O)N2CCC3(CC2)OCCN3C(=O)Nc2ccc(OC)cc2)cc1` [Compound C0151M], in that order: 346.8%, 212.8% and 397.6%.
As to `C[C@@H](NC(=O)[C@@H](N)Cc1ccc(O)cc1)C(=O)NCC(=O)N(C)[C@@H](Cc1ccccc1)C(=O)NCCO` [DAMGO, reference compound], on mu opiate receptor (MOR), the “MOR agonist activity … as agonist 0.1 μM” value worked out at 168.5%; the “MOR agonist activity … 1 μM + BFNA” value is on record as 53.2%; the “MOR agonist activity … as agonist 1 μM” value was 266.1%.
With `O=C1CC[C@@]2(O)[C@H]3Cc4ccc(O)c5c4[C@@]2(CCN3CC2CC2)[C@H]1O5` [NTX, naltrexone], the Kd at filamin A is about 4 pM.
With `C=CCN1CC[C@]23c4c5ccc(O)c4O[C@H]2C(=O)CC[C@@]3(O)[C@H]1C5` [Naloxone, naloxone], the Kd on filamin A was about 4 pM.
In the case of `COc1ccc2c3c1O[C@H]1C(=O)CC[C@@]4(O)[C@@H](C2)N(C)CC[C@]314` [Oxycodone, oxycodone, reference compound], at MOR (10 μM), the “Go (MOR level in anti-Gαo immunoprecipitates), average” value amounted to 900.4. Besides, the “switch of μ opioid receptor G protein coupling from Go to Gs” value at MOR (7 days of twice daily 1-hour exposures, organotypic striatal slice cultures) is “switch from Go to Gs coupling”.
Regarding `CN1CC[C@]23c4c5ccc(O)c4O[C@H]2[C@@H](O)C=C[C@H]3[C@H]1C5` [morphine, reference compound], in assay [1] (orally administered, mouse, 52° C. tail flick), the “A50 value (95% confidence interval)” value is 61.8 (52.4−72.9) mg/kg.
